In brackets after ≈: the same amount, converted by molar mass.

One data set has as its system Anas platyrhynchos. The following applies: short-term; oral; feed; mortality.
The next data set relates to Apis mellifera. The following applies: acute; duration: 48 hours; dermal; mortality.
A further data set has as its system Folsomia candida. The following applies: chronic/long-term; duration: 28 days; mortality.
A further data set concerns Lepomis macrochirus. The following applies: acute; duration: 96 hours; mortality.
The subject of a further data set is Tagia sp. The following applies: acute; duration: 14 days; mortality.
The subject of another data set is Aphidius rhopalosiphi. As to the kind of experiment: LR50; higher = less toxic. The following applies: not reported; mortality.

The LOAEL is the lowest dose or exposure tested at which an adverse effect was seen. The term NOAEL denotes the highest tested level that showed no adverse finding. With `[O-][n+]1nc(-n2ccnc2)nc2ccc(Cl)cc21` [Triazoxide], the LD50 in the data set on Anas platyrhynchos was 268 mg/kg-day; with Apis mellifera it was over 200 µg/piece; with Coturnix japonica (acute, oral, mortality), 90 mg/kg-day; in the data set with Rattus norvegicus (acute, oral, mortality), 98 mg/kg-day. The NOEC in the data set with Coturnix japonica (reproduction developmental, duration: 6 weeks) turned out to be 11.7 mg/kg-day; in the data set with Folsomia candida, 500 mg/kg. Moreover, the LC50 in the data set with Lepomis macrochirus is 0.077 µg/mL (≈ 0.311 µM); in the data set with Tagia sp. it was over 1000 mg/kg. The LOAEL with Rattus norvegicus (chronic, duration: 2 years, oral, diet, hematological) amounted to 0.05 mg/kg-day. Besides, the NOAEL turned out to be 0.11 mg/kg-day in the data set with Rattus norvegicus (reproduction developmental, organ weight); 2.04 mg/kg-day with Rattus norvegicus (reproduction developmental, reproduction); 1.5 mg/kg-day with Rattus norvegicus (short-term, duration: 28 days, oral, hematological); 0.21 mg/kg-day in the data set on Rattus norvegicus (subchronic, duration: 90 days, oral, hematological). Further, in the data set with Aphidius rhopalosiphi, the LR50 is over 5.13 g/ha.

Source of the values: EPA's ToxValDB 9.5 (doi:10.2903/j.efsa.2009.193r).
